# Measured values: PubChem BioAssay (NCI)
#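 Where inhibition never reached the appropriate level, the endpoint shown equals the highest concentration tested. Otherwise, values were interpolated linearly from a five-concentration, 48-hour dose response in 96-well plates. Definition used: TGI = concentration required for complete inhibition of growth.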
# Legend:
# Test in all cases: NCI anticancer screen, dose series, 48 h
# NCI-H226 lung = test system: NCI-H226 lung
# MDA-N = test system: MDA-N
# MALME-3M melanoma = test system: MALME-3M melanoma
# T-47D breast = test system: T-47D breast
# SK-MEL-28 melanoma = test system: SK-MEL-28 melanoma
# SF-268 CNS = test system: SF-268 CNS
# MDA-MB-435 = test system: MDA-MB-435
# HCT-15 colon = test system: HCT-15 colon
# DU-145 prostate = test system: DU-145 prostate
# OVCAR-8 ovarian = test system: OVCAR-8 ovarian
Structure (SMILES),TGI (NCI-H226 lung),TGI (MDA-N),TGI (MALME-3M melanoma),TGI (T-47D breast),TGI (SK-MEL-28 melanoma),TGI (SF-268 CNS),TGI (MDA-MB-435),TGI (HCT-15 colon),TGI (DU-145 prostate),TGI (OVCAR-8 ovarian)
CCCCCCCCCCCCCCCCCCOCC(O)COP(=O)(O)OCC1OC(n2cc(F)c(=O)[nH]c2=O)CC1O (stereo not given),> 53.8 µM,28.2 µM,33.9 µM,38.8 µM,28.8 µM,36.5 µM,> 52.1 µM,23.7 µM,23.5 µM,18.9 µM
CN1C2CC(=O)CC1[C@@H]1OC(c3ccccc3)O[C@H]21 (stereo not given in full),> 100 µM,> 100 µM,> 100 µM,> 100 µM,> 100 µM,> 100 µM,> 100 µM,> 100 µM,> 100 µM,> 100 µM
O=C(Nc1cccc(-c2cn3ccccc3n2)c1)c1ccncc1,> 100 µM,> 100 µM,> 100 µM,79.6 µM,> 100 µM,> 100 µM,> 100 µM,> 100 µM,> 100 µM,> 100 µM
N#CC1=CNc2sccc2S1(=O)=O,> 100 µM,> 100 µM,> 100 µM,> 100 µM,> 100 µM,> 100 µM,> 100 µM,> 100 µM,> 100 µM,> 100 µM
CC(C)(C)OC(=O)N1C(OP(=O)(Oc2ccccc2)Oc2ccccc2)=COc2cccnc21,> 100 µM,> 100 µM,98.2 µM,94.2 µM,> 100 µM,> 100 µM,> 100 µM,> 100 µM,> 100 µM,> 100 µM
O=C(c1ccco1)N(C(=S)OCc1ccccn1)c1ccccc1,> 100 µM,> 100 µM,79.2 µM,> 100 µM,> 100 µM,> 100 µM,> 100 µM,> 100 µM,> 100 µM,> 100 µM
CC(C)(C)N1Cc2ccccc2/C(=C/Sc2ccccc2)C1=O,25.9 µM,21.8 µM,28.7 µM,45.3 µM,33.7 µM,20.2 µM,20.1 µM,37 µM,32.7 µM,22.3 µM
O=C(N=Nc1ccccc1Br)NNc1ccccc1Br,> 100 µM,> 100 µM,> 100 µM,> 100 µM,> 100 µM,> 100 µM,> 100 µM,> 100 µM,> 100 µM,> 100 µM
COC1/C=C/C(C)C(C(C)C(OC)C(C)CCC(=O)C(C)C(CCC(=O)O)OC)OC(=O)/C=C/C=C(\C)CC(OC)CC2=CC(=O)O[C@@H](C(C)C(OC)CC(OC)/C=C/C(C)C(OC)C1)[C@H]2O (stereo not given in full),2.13 µM,> 5 µM,2.94 µM,> 5 µM,> 3.29 µM,> 2.47 µM,> 5 µM,> 5 µM,> 5 µM,> 5 µM
N#CCc1nc(C#N)c(N)o1,> 100 µM,> 100 µM,> 100 µM,> 100 µM,> 100 µM,> 100 µM,> 100 µM,> 100 µM,> 100 µM,> 100 µM
CSCCC(NC(=O)OC(C)(C)C)C(=O)NCCNc1ccc(NCCNC(=O)C(CCSC)NC(=O)OC(C)(C)C)c2c1C(=O)c1ccccc1C2=O (stereo not given),19.7 µM,7.03 µM,9.35 µM,12.1 µM,3.69 µM,18.7 µM,7.49 µM,> 100 µM,33.2 µM,5.4 µM
COc1ccc2c(c1)CCc1c-2n(CCN(C)C)c2ccc(OC)cc12,10.6 µM,95.2 µM,53.5 µM,85.4 µM,33.6 µM,> 100 µM,32.6 µM,> 100 µM,> 100 µM,51 µM
Cc1ccc(S(=O)(=O)N2CCN(CCN(C)CCN3CCN(S(=O)(=O)c4ccc(C)cc4)CC3)CC2)cc1,79.7 µM,39.7 µM,33.7 µM,48 µM,31.4 µM,40.1 µM,32 µM,31.9 µM,68.5 µM,32.7 µM
Cc1cc(S(=O)(=O)Nc2nnc3cc(C(F)(F)F)cc(C)n23)c(S)cc1Cl,> 96.5 µM,> 100 µM,> 100 µM,> 100 µM,> 100 µM,> 100 µM,> 100 µM,> 100 µM,> 100 µM,> 100 µM
O=C(/C=C/c1ccc([N+](=O)[O-])cc1)c1nc2ccccc2[nH]1,4.39 µM,> 100 µM,> 100 µM,> 84.8 µM,> 100 µM,> 100 µM,> 100 µM,> 100 µM,> 100 µM,> 100 µM
CC#CC(O)(C(=O)OC1CCCN(C)C1)C1=CC=CCC1 (stereo not given),> 100 µM,> 100 µM,> 100 µM,> 100 µM,> 100 µM,> 100 µM,> 100 µM,> 100 µM,> 100 µM,> 100 µM
O=C1[C@@H]2Cc3c([nH]c4ccccc34)C(C3CCCCC3)N2C(=O)[C@@H]2CCCN12 (stereo not given in full),> 100 µM,> 100 µM,51.1 µM,> 100 µM,> 100 µM,> 100 µM,> 100 µM,> 100 µM,> 100 µM,> 100 µM
N#Cc1c2c(c(N3CCOCC3)n3c1nc1ccccc13)CCCC2,32.5 µM,38.7 µM,34 µM,41.5 µM,49.3 µM,> 100 µM,39.7 µM,36.2 µM,37.2 µM,43.4 µM
COc1ccc(OC)c2cc(Cc3ccc(N(C)C)cc3)c(=O)c(Cc3ccc(N(C)C)cc3)cc12,> 100 µM,> 100 µM,> 100 µM,> 100 µM,> 100 µM,> 100 µM,> 100 µM,> 100 µM,> 100 µM,> 100 µM
